IC50 data for four compounds are collected here from ChEMBL document CHEMBL1131790, “Structure-based design and synthesis of novel thrombin inhibitors based on phosphinic peptide mimetics” (Bioorg Med Chem Lett, 1999).

The IC50 is the concentration that inhibits the measured activity by half.

The test addresses Prothrombin (Homo sapiens, UniProt P00734). Nature of the test: In vitro inhibitory activity against thrombin.

In turn, `CC(=O)N[C@H](Cc1c[nH]c2ccccc12)C(=O)N[C@H](Cc1ccc(C(=N)N)cc1)P(=O)(O)c1ccccc1` displayed an IC50 of 7.5 µM. `N=C(N)c1ccc(C[C@@H](NC(=O)[C@@H](Cc2ccc3ccccc3c2)NC(=O)OCc2ccccc2)P(=O)(O)c2ccccc2)cc1` gave an IC50 of 3.6 µM. With `COc1ccc(C[C@@H](NC(=O)[C@@H](Cc2ccc3ccccc3c2)NC(=O)OCc2ccccc2)P(=O)(O)c2ccccc2)cc1` the figure was 70 µM; with `N=C(N)c1ccc(C[C@@H](NC(=O)[C@H](N)Cc2ccc3ccccc3c2)P(=O)(O)c2ccccc2)cc1`, 0.6 µM.
